Assay results taken from patent US11098061B2 (Celgene CAR LLC, priority 2013, dated 2021).

Tests used:
[1] = target: p38a activated, mitogen-activated protein kinase-activated protein kinase 2 (MAPKAP-K2 or MK-2) enzyme (Homo sapiens (Human), UniProt P49137); assay: MK2 Omnia continuous-read kinase assay for compound potency; type: biochemical; details: [MK-2]=0.4 nM, [ATP]=1.0 mM, [ST3-Sox]=10 μM
Summary of the method: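 Continuous Omnia fluorescence read (λex360/λem485) every 71 s after starting with 0.4 nM MK-2, with 1.0 mM ATP (appKM 8-10 μM) and 10 μM ST3-Sox substrate.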

MK2 [2] = target: T1, MK2 (Homo sapiens (Human), UniProt P49137); assay: MK2 cellular assay (Hsp27 phosphorylation in Thp-1 cells); type: cell-based; details: differentiated Thp-1 cells, compound 1 hour, 50 ng/ml LPS 15 minutes, phosphorylation of Hsp27; read-out: MK2EC50
T1 sequence (P49137 whole entry): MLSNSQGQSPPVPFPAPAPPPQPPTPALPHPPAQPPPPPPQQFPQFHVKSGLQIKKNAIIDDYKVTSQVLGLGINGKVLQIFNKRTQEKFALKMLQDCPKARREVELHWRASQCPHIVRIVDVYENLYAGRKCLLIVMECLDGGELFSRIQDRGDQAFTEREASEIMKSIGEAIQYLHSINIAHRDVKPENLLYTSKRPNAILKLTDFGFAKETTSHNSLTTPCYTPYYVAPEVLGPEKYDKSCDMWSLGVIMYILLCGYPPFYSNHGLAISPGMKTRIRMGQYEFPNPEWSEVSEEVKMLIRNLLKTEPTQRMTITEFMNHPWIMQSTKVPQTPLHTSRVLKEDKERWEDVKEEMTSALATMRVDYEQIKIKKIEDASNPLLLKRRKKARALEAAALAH
Summary of the method: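 PMA-differentiated (10 ng/ml, 2 days) human Thp-1 monocytic cells given compound for 1 h, washed, then stimulated with 50 ng/ml LPS for 15 min. Hsp27 phosphorylation measured by western blot of lysates (20 μg protein); EC50 from dose-response inhibition.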

MK2 [3] = target: T1, MK2; assay: MK2 modification assessment by whole protein mass spectrometry; type: binding; details: intact MK2, 60 min, 10-fold excess of compound to protein
Summary of the method: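 MK2 treated with compound is analysed intact by MALDI-TOF after C4 cleanup in sinapinic acid matrix. Percent modification is the centroid mass shift against control MK2 divided by compound mass.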

TNFα release [4] = assay: PO mouse PD experiment (TNFα release after LPS); type: in vivo; details: CD-1 male mice, 30 mg/kg PO, 1 hour prior to LPS, read-out: % Inhibition of TNFa
Experimental: CD-1 male mice, approximately 5 weeks old were acquired from Charles River Laboratories. Animals were housed in ventilated cages with a 12/12 light cycle and provided rodent chow and water ad libitum. Mice were acclimated at least 1 week prior to study initiation (approximately 6 weeks old). Five (5) mice per group were predosed at 30 mg/kg PO with one of the following compounds: III-8, III-35, II-27, III-47, III-56, V-39, II-27, III-37, II-e-1, II-e-3, III-40, and V-58 (by oral gavage as a suspension in 0.5% methyl cellulose/0.25% Tween 80 in deionized water), 1 hour prior to LPS administration. LPS (E.Coli 055:B5 from Sigma, Cat #L2880) was diluted in 0.9% sterile saline (Webster Veterinary Supply, Cat #07-883-6734) to a final concentration of 30 μg/mL. Animals were administered 15 μg in 0.5 mL/mouse (approximately 0.5 mg/kg LPS) intraperitoneally. One hour post LPS administration, the mice were sacrificed via CO2 and whole blood was collected by cardiac puncture. Blood was placed in EDTA K2 tubes (Braintree Scientific, Cat #MT-1395), inverted 3 times and placed on wet ice until centrifugation at 4° C. Plasma was collected and stored on dry ice until stored at −80° C. until processing. TNFα levels were quantified using the “Mouse TNF-alpha Ultra-Sensitive Kit” from mesoscale.com (catalog number K152BHC-2) in conjunction with an MSD plate reader.

TNFα release [5] = assay: IV mouse PD experiment (TNFα release after LPS); type: in vivo; details: CD-1 male mice, less than 10 mg/kg IV, 1 hour prior to LPS
Experimental: CD-1 male mice, approximately 5 weeks old were acquired from Charles River Laboratories. Animals were housed in ventilated cages with a 12/12 light cycle and provided rodent chow and water ad libitum. Mice were acclimated at least 1 week prior to study initiation (approximately 6 weeks old). Five (5) mice per group were predosed with one of the following compounds: II-14, III-32, III-8, III-4, II-27 and III-40 (intravenously by lateral tail vein), 1 hour prior to LPS administration. LPS (E.Coli 055:B5 from Sigma, Cat #L2880) was diluted in 0.9% sterile saline (Webster Veterinary Supply, Cat #07-883-6734) to a final concentration of 30 μg/mL. Animals were administered 15 μg in 0.5 mL/mouse (approximately 0.5 mg/kg LPS) intraperitoneally. One hour post LPS administration, the mice were sacrificed via CO2 and whole blood was collected by cardiac puncture. Blood was placed in EDTA K2 tubes (Braintree Scientific, Cat #MT-1395), inverted 3 times and placed on wet ice until centrifugation at 4° C. Plasma was collected and stored on dry ice until stored at −80° C. until processing. TNFα levels were quantified using the “Mouse TNF-alpha Ultra-Sensitive Kit” from mesoscale.com (catalog number K152BHC-2) in conjunction with an MSD plate reader.

Chain of p38a activated, mitogen-activated protein kinase-activated protein kinase 2 (MAPKAP-K2 or MK-2) enzyme (P49137 whole entry): as above

Row | SMILES | IC50 [1] | EC50 (MK2 [2]) | MK2 Mass Mod (MK2 [3]) | inhibition in vivo at 30 mg/kg (TNFα release [4]) | reduction in TNFα release compared to untreated control (TNFα release [5])
1 | C=CC(=O)Nc1cccc2oc(-c3ccc4cc5n(c4c3)C3(CCC3)CNC5=O)nc12 [Compound V-39, N-(2-(1′-oxo-2′,3′-dihydro-1′H-spiro[cyclobutane-1,4′-pyrazino [1,2-a]indol]-7′-yl)benzo[d]oxazol-4-yl)acrylamide] | 101 to 500 nM | 101 to 500 nM | E (mass modification of ≥70%) | ≥ 81% | 
2 | C=CC(=O)N1c2cc(NC(=O)c3ccc4cc5n(c4c3)C3(CCC3)CNC5=O)ccc2OCC1(C)C [Compound V-58, N-(4-acryloyl-3,3-dimethyl-3,4-dihydro-2H-benzo[b][1,4]oxazin-6-yl)-1′-oxo-2′,3′-dihydro-1′H-spiro[cyclobutane-1,4′-pyrazino [1,2-a]indole]-7′-carboxamide] | < 100 nM | < 100 nM | E (mass modification of ≥70%) | ≤ 20% | 
3 | C=CC(=O)Nc1cccc(-c2cc3c(ccc4c5c([nH]c43)CCC5=O)cn2)c1 [II-e-1, N-(3-(7-oxo-7,8,9,10-tetrahydrocyclopenta[4,5]pyrrolo[2,3-f]isoquinolin-2-yl)phenyl)acrylamide] | 101 to 500 nM | 501 to 999 nM | E (mass modification of ≥70%) | ≤ 20% | 
4 | C=CC(=O)Nc1cc(-c2cc3c(ccc4c5c([nH]c43)CCC5=O)cn2)ccc1F [II-e-3, N-(2-fluoro-5-(7-oxo-7,8,9,1-tetrahydrocyclopenta[4,5]pyrrolo[2,3-f]isoquinolin-2-yl)phenyl)acrylamide] |  |  |  | ≤ 20% | 
5 | C=CC(=O)Nc1cc(NC(=O)c2ccc3sc4c(c3c2)NC[C@@H](C)NC4=O)ccc1C1CCN(C)CC1 [III-56, (R)—N-(3-acrylamido-4-(1-methylpiperidin-4-yl)phenyl)-3-methyl-5-oxo-2,3,4,5-tetrahydro-1H-benzo[4,5]thieno[3,2-e][1,4]diazepine-9-carboxamide] |  |  |  | ≤ 20% | 
6 | C=CC(=O)Nc1cc(-c2nccc(-c3cc4n(c3)CCNC4=O)n2)ccc1OC [V-c-2, N-(2-methoxy-5-(4-(1-oxo-1,2,3,4-tetrahydropyrrolo[1,2-a]pyrazin-7-yl)pyrimidin-2-yl)phenyl)acrylamide] | < 100 nM | > 1000 nM | E (mass modification of ≥70%) |  | 
7 | C=CC(=O)N1CCOc2ccc(-c3nccc(-c4cc5n(c4)CCNC5=O)n3)cc21 [V-c-3, 7-(2-(4-acryloyl-3,4-dihydro-2H-benzo[b][1,4]oxazin-6-yl)pyrimidin-4-yl)-3,4-dihydropyrrolo[1,2-a]pyrazin-1(2H)-one] | < 100 nM | > 1000 nM | E (mass modification of ≥70%) |  | 

Now from value to molecule, other results behind:

Row | IC50 [1] | EC50 (MK2 [2]) | MK2 Mass Mod (MK2 [3]) | SMILES | inhibition in vivo at 30 mg/kg (TNFα release [4]) | reduction in TNFα release compared to untreated control (TNFα release [5])
8 | < 100 nM | < 100 nM | E (mass modification of ≥70%) | C=CC(=O)Nc1cc(-c2cc3c(cn2)CCc2c-3[nH]c3c2C(=O)NCC3)cnc1OCCOC [II-14, N-(2-(2-methoxyethoxy)-5-(7-oxo-6,7,8,9,10,11-hexahydro-5H-pyrido[3′,4′:4,5]pyrrolo[2,3-f]isoquinolin-2-yl)pyridin-3-yl)acrylamide] |  | greater than 90%
9 | < 100 nM | < 100 nM | E (mass modification of ≥70%) | C=CC(=O)Nc1cc(-c2cc3c(cn2)CCc2c-3[nH]c3c2C(=O)NC2(CC2)C3)ccc1N1CCN(C)CC1 [II-27, N-(2-(4-methylpiperazin-1-yl)-5-(7′-oxo-5′,6′,7′,8′,10′,11′-hexahydrospiro[cyclopropane-1,9′-pyrido[3′,4′:4,5]pyrrolo[2,3-f]isoquinolin]-2′-yl)phenyl)acrylamide] | ≤ 20% | greater than 90%
10 | < 100 nM | < 100 nM | E (mass modification of ≥70%) | C=CC(=O)Nc1cc(NC(=O)c2ccc3sc4c(c3c2)NC[C@@H](C)NC4=O)ccc1N1CCN(C)CC1 [III-4, (R)—N-(3-acrylamido-4-(4-methylpiperazin-1-yl)phenyl)-3-methyl-5-oxo-2,3,4,5-tetrahydro-1H-benzo[4,5]thieno[3,2-e][1,4]diazepine-9-carboxamide] |  | greater than 90%
11 | < 100 nM | < 100 nM | E (mass modification of ≥70%) | C=CC(=O)N1CC(C)(C)Oc2ccc(NC(=O)c3ccc4sc5c(c4c3)NC[C@@H](C)NC5=O)cc21 [III-32, (R)—N-(4-acryloyl-2,2-dimethyl-3,4-dihydro-2H-benzo[b][1,4]oxazin-6-yl)-3-methyl-5-oxo-2,3,4,5-tetrahydro-1H-benzo[4,5]thieno[3,2-e][1,4]diazepine-9-carboxamide] |  | greater than 90%
12 | < 100 nM | 101 to 500 nM | E (mass modification of ≥70%) | C=CC(=O)Nc1cc(NC(=O)c2ccc3sc4c(c3c2)NC[C@@H](C)NC4=O)ccc1OCCN(C)C [III-35, (R)—N-(3-acrylamido-4-(2-(dimethylamino)ethoxy)phenyl)-3-methyl-5-oxo-2,3,4,5-tetrahydro-1H-benzo[4,5]thieno[3,2-e][1,4]diazepine-9-carboxamide] | ≤ 20% | 
13 | < 100 nM | < 100 nM | E (mass modification of ≥70%) | C=CC(=O)Nc1cc(-c2ccc3c(ccc4sc5c(c43)NC[C@@H](C)NC5=O)n2)ccc1C [III-37, (R)—N-(2-methyl-5-(10-methyl-8-oxo-9,10,11,12-tetrahydro-8H-[1,4]diazepino[5′,6′:4,5]thieno[3,2-f]quinolin-3-yl)phenyl)acrylamide] | ≤ 20% | 
14 | < 100 nM | < 100 nM |  | C=CC(=O)Nc1cc(-c2ccc3c(ccc4sc5c(c43)NC[C@@H](C)NC5=O)n2)ccc1OCCN(C)C [III-40, (R)—N-(2-(2-(dimethylamino)ethoxy)-5-(10-methyl-8-oxo-9,10,11,12-tetrahydro-8H-[1,4]diazepino[5′,6′:4,5]thieno[3,2-f]quinolin-3-yl)phenyl)acrylamide] | ≤ 20% | greater than 90%
15 | < 100 nM | < 100 nM | E (mass modification of ≥70%) | C=CC(=O)NC1CCCC1NC(=O)c1ccc2sc3c(c2c1)NC[C@@H](C)NC3=O (some centres unmarked) [III-47] | ≤ 20% | 
